According to US20130310347A1, “MULTI-MODALITY MOLECULAR IMAGING HIGH-THROUGHPUT ASSAY FOR IDENTIFYING HEAT SHOCK PROTEIN 90 (HSP90) INHIBITORS” (The Board of Trustees of the Leland Stanford Junior …, priority 2012, published 2013):
pIC50: −log10 of the molar value.

Tests used:
[1] = Body weight of treated mice; format: in vivo; settings: 43 h; P>0.05
cellular Hsp90 = assay: 3H-17AAG uptake in intact HT29 cells; format: cell-based; settings: CP9 0.4 to 12.5 μM, 3H-17AAG 0.5 μM, 1 h, dose-dependent, p<0.05
Method: FIG. 5D is a graph illustrating the inhibition of ^3H-17AAG uptake by CP9 in HT29 cells. HT29 cells were pre-incubated with different concentrations of CP9 together with ^3H-17AAG (0.5 μM) for 1 h followed by 1 h of wash-out of unbound ^3H-17AAG in fresh medium. The amount of ^3H-17-AAG incorporated intracellularly was determined by scintillation counting of cell lysates, followed by normalization for protein content and to carrier control-treated cells. Cells incubated with 5 μM of PU-H71 served as a positive control. Results are expressed as means of triplicates±S.E.M. *, p<0.05 vs. carrier control-treated cells.
To confirm the direct binding of CP9 to Hsp90(α/β), an in vitro competitive binding assay using purified Hsp90α and Hsp90β was performed using radiolabeled Hsp90 inhibitor ^3H-17AAG. Hsp90 proteins were pre-bound with CP9 or cold 17-AAG as a control prior to incubation with ^3H-17AAG. Unbound ^3H-17AAG was removed and the amount of ^3H-17AAG bound to the Hsp90 proteins was determined. […]
To determine if CP9 binds to cellular Hsp90, an uptake study of ^3H-17AAG (Moravek Biochemicals, Brea, Calif.) was performed. […] The total counts in each sample were normalized to that of the dose added to each well and to the amount of protein, and expressed as mean counts/dose/μg protein±S.E.M.

Hsp90α/p23 interactions = molecular target: T1, Hsp90α/p23 interactions (Homo sapiens, UniProt P07900); assay: HTS dose response, 293T cells stably expressing Hsp90α/p23 split RL reporters; format: cell-based; settings: inhibition of bioluminescence signals by 50% vs carrier control; 8 point dose response 0.156-20 μM; 24 h
T1 construct: expressed in transfected cells; also with FL-eGFP reporter (293Tα-FG) and as xenografts in nude mice
Method: Novel Hsp90 inhibitors using a commercial 30,176 small molecule chemical compound library with unknown targets and molecular mechanisms (FIG. 9B) were also identified. 293T cells stably expressing Hsp90α/p23 or Hsp90β/p23 split RL reporters were treated with each compound at 8.3 μM.
Baseline complemented RL activities were determined 90 mins after addition of 20 μl of ENDUREN® (10 μM final concentration) (Promega, Madison, Wis.) using the Analyst GT (Molecular Device, Sunnyvale, Calif.), with an acquisition time of 0.2 sec per well. Cells were incubated with compounds for 24 h prior to re-determination of complemented RL activities, and normalized to the mean RL activities of untreated cells in columns 1-2. Another small molecule chemical library with 30,176 compounds (SPECS, Wakefield, R.I.) was also used in screening modulators of Hsp90(α/β)/p23 inhibitors (at 8.3 μM, one drug per well for initial screening). For dose response/confirmation assay the compounds were tested in duplicate in an 8 point (0.156-20 μM) dose response assay for RL activities for both Hps90(α/β)/p23 interactions. The effect of each compound on cell proliferation at 20 μM was determined using Cell Titer-Blue assay in duplicate wells. […]

[2] = test system: Hsp90(α/β)/p23 interactions; assay: BLI of lead compounds in intact 293T cells with split RL reporters; format: cell-based, human
Method: Bioluminescence signals were quantified and normalized for cell number and that of carrier control treated cells (right). Results were expressed as mean±S.E.M.
To determine the effect of lead compounds on disruption of Hsp90(α/β)/p23 interactions in intact cells, 3.5×10^4 293T cells stably transfected with split RL reporters as described in Chan et al., (2008) Cancer Res. 68: 216-226, were plated in each well in the 96-well black wall plate (Costar, Corning, N.Y.) and allowed to attach for 24 h, prior to treatment with different concentrations of the lead compounds for 24 h. The 10 μg/ml of ENDUREN® (in […] of cell culture medium) was added to each well for 1.5 h and RL activities were determined. BLI signals were normalized to that of cell number for each well (determined by Alamar Blue assay (Invitrogen, Carlsbad, Calif.)), prior to normalization to carrier control-treated cells.

- pIC50 (Hsp90α/p23 interactions): 5.49
Compound: Cc1cc(NC(=O)CSc2nc(-c3cccs3)cc(C(F)(F)F)n2)no1 [CP9, N-(5-methylisoxazol-3-yl)-2-(4-(thiophen-2-yl)-6-(trifluoromethyl)pyrimidin-2-ylthio)acetamide]
- body weight vs carrier control-treated mice [1]: no significant decreases in weight
- maximum reduction in uptake of 3H-17AAG relative to carrier control (cellular Hsp90): 30%
- selectivity for Hsp90α/p23 BLI signals relative to Hsp90β/p23 interactions ([2]; 293T cells): more selective for inhibition of Hsp90α/p23 BLI signals
- bioluminescence signals in 293T cells expressing Hsp90α/p23 and Hsp90β/p23 split RL reporters ([2]; 24 h, normalized for cell number and carrier control): dose-dependent decrease
